Structures can show the parent of a compound that is named as a salt. Where two headings read alike, the source gives them in different places.
How the values were obtained:
[1] = target: type II dehydroquinase from Streptomyces coelicolor (Streptomyces coelicolor, UniProt P15474); experiment: Inhibition of type II dehydroquinase from Streptomyces coelicolor (Ki); format: biochemical
Experimental: (§1) Effect of compounds of formula I of the invention on the catalytic activity of the type II dehydroquinase from various sources. The inhibitory potency of compounds I of the invention against type II dehydroquinases from Mycobacterium tuberculoris, Streptomyces coelicolor and Helicobacter pylori were assayed as it is described in the following articles: 1) Sanchez-Sixto, C.; Prazeres, V. F. V.; Castedo, L.; Lamb, H.; Hawkins, A. R.; Gonzalez-Bello, C. J. Med. Chem. 2005, 48, 4871; 2) Prazeres, V. F. V.; Sanchez-Sixto, C.; Castedo, L.; Lamb, H.; Hawkins, A. R.; Riboldi-Tunnicliffe; Coggins, J. R.; Lapthorn, A. J.; González-Bello, C. Chem Med Chem 2007, 2, 194; and 3) Sanchez-Sixto, C.; Prazeres, V. F. V.; Castedo, L.; S. W. Suh, Lamb, H.; Hawkins, A. R.; Canada, F. J.; Jiménez-Barbero, J.; González-Bello, C. Chem Med Chem 2008, 3, 756.

[2] = target: T1, type II dehydroquinase from Helicobacter pylori (Helicobacter pylori, UniProt Q48255); experiment: Inhibition of type II dehydroquinase from Helicobacter pylori (Ki); format: biochemical; conditions: pH = 7.0, 25° C., 50 mM Tris•HCl
T1 sequence (Q48255 1-167): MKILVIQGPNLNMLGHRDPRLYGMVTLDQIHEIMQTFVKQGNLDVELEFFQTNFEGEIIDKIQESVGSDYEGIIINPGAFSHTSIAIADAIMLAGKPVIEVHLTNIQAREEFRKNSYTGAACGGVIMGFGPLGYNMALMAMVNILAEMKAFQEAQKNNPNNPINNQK
Experimental: as §1

[3] = target: T2, type II dehydroquinase from Mycobacterium tuberculosis (Mycobacterium tuberculosis, UniProt P9WPX7); experiment: biochemical; conditions: pH = 7.0, 25° C., 50 mM Tris•HOAc
T2 sequence (P9WPX7 whole entry): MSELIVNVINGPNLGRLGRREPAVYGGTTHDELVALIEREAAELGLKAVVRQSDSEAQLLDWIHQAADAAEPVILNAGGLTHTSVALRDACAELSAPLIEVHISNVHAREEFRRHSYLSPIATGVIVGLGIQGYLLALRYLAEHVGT
Experimental: as §1

[4] = target: T2, type II dehydroquinase from Mycobacterium tuberculosis; conditions: read-out: Km of natural substrate, M. tuberculosis; cited from earlier work
[5] = target: T1, type II dehydroquinase from Helicobacter pylori; conditions: read-out: Km of natural substrate, H. pylori; cited from earlier work
[6] = pH = 7.0, 25° C., 50 mM Tris•HCl, read-out: Inhibition constants Ki, S. coelicolor
[7] = Inhibition constants Ki, H. pylori
[8] = Inhibition constants Ki, S. coelicolor, pH = 7.0, 25° C., 50 mM Tris•HCl
[9] = read-out: Inhibition constants Ki, M. tuberculosis
[10] = read-out: Inhibition constants Ki, H. pylori
[11] = Inhibition constants Ki, M. tuberculosis

Chain of type II dehydroquinase from Streptomyces coelicolor (P15474 whole entry): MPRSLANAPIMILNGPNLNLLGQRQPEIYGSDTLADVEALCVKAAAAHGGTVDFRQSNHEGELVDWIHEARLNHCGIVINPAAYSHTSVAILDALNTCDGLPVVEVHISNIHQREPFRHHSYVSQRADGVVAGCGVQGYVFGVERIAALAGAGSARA

SMILES	melting point	Ki [3, 11] [nM]	also measured
O=C(O)[C@@]1(O)C[C@@H](O)[C@H](O)c2sc(/C=C/c3ccccc3)cc21 [Ic-11]	200 °C (dec.)		Ki [1, 6]: 150 nM; Ki [2, 7]: 16000 nM
O=C1[C@@H](O)[C@H](O)C[C@](O)(C(=O)O)[C@@H]1Cc1ccccc1 [(2S)-Ia-3, (2S)-2-benzyl-3-dehydroquinic acid]	131 to 134 °C		Ki [1, 8]: 1050 nM; Ki [3, 9]: 90 nM; Ki [2, 10]: 1180 nM
Cc1ccc(CC2C(=O)C(O)C(O)CC2(O)C(=O)O)cc1 (single isomer, unassigned) [(2S)-Ia-4]	134 to 138 °C	90	Ki [1, 8]: 150 nM; Ki [2, 10]: 970 nM
O=C([O-])[C@@]1(O)C[C@@H](O)[C@H](O)C(OCc2ccc3sccc3c2)=C1Cc1cccs1.[Na+] (hydrate or solvate) [Ib-13, Sodium (1R,4S,5R)-1,4,5-trihydroxy-3-(benzo[b]thiophen-5-yl)methoxy-2-(thien-2-yl)methylcyclohex-2-en-1-carboxylate]	184 °C (dec.)		
O=C([O-])[C@@]1(O)C[C@@H](O)[C@H](O)C(OCc2ccc3ccccc3c2)=C1Cc1ccc2ccccc2c1.[Na+] (hydrate or solvate) [Ib-11, Sodium (1R,4S,5R)-1,4,5-trihydroxy-3-(naphth-2-yl)methoxy-2-(naphth-2-yl)methylcyclohex-2-en-1-carboxylate]	184 to 187 °C		
Cc1cc2c(s1)[C@@H](O)[C@H](O)C[C@]2(O)C(=O)O (hydrate or solvate) [Ic-2, (4R, 6R, 7S)-4,6,7-trihydroxy-2-methyl-4,5,6,7-tetrahydrobenzo[b]thiophen-4-carboxylic acid]	92 to 95 °C		
Cc1ccc(CC2C(=O)C(O)C(O)CC2(O)C(=O)O)cc1 (single isomer, unassigned) (hydrate or solvate) [(2R)-Ia-4]	105 to 108 °C		
COc1ccc(CC2C(=O)C(O)C(O)CC2(O)C(=O)O)cc1 (single isomer, unassigned) [(2S)-Ia-5]	138 to 143 °C	100	Ki [1, 8]: 340 nM
O=C(O)[C@@]1(O)C[C@@H](O)[C@H](O)c2sccc21 [Ic-1, (4R, 6R, 7S)-4,6,7-trihydroxy-4,5,6,7-tetrahydrobenzo[b]thiophen-4-carboxylic acid]	128 to 131 °C	3000	Ki [1, 6]: 9700 nM; Ki [2, 7]: 34000 nM
O=C1C(O)C(O)CC(O)(C(=O)O)C1Cc1ccc2sccc2c1 (single isomer, unassigned) [(2S)-Ia-7]	152 to 155 °C	55	Ki [1, 8]: 38 nM; Ki [2, 10]: 900 nM
O=C(O)[C@@]1(O)C[C@@H](O)[C@H](O)c2sc(/C=C/C3CC3)cc21 [Ic-6]	103 to 105 °C	110	Ki ([1]; read-out: affinities in the case of S. coelicolor): 0.3 nM; Ki [2, 7]: 1080 nM
O=C([O-])[C@]1(O)C=C(OCc2ccc3sccc3c2)[C@@H](O)[C@H](O)C1.[Na+] (hydrate or solvate) [Ib-7, Sodium (1R,4S,5R)-1,4,5-trihydroxy-3[(benzo[b]thiophen-5-yl)methoxy]cyclohex-2-en-1-carboxylate]	157 to 160 °C (dec.)		
COC(=O)[C@@]1(O)C[C@@H](O)[C@H](O)c2sc(C)cc21	87 to 92 °C		
O=C1C[C@@](O)(C(=O)O)C[C@@H](O)[C@@H]1O [natural substrate]			Km [4]: 40 µM; Km [5]: 444 µM
CCOC(=O)[C@@]1(O)C[C@@H](O)[C@H](O)c2sc(CCc3ccccc3)cc21	118 to 120 °C		
O=C(O)[C@]1(O)C=C(OCc2ccc3ccccc3c2)[C@@H](O)[C@H](O)C1 (as salt: sodium) (hydrate or solvate) [Ib-.10, Sodium (1R,4S,5R)-1,4-trihydroxy-3-(2-naphyl)methoxycyclohex-2-en-1-carboxylate]	54 °C (dec.)		
O=C(O)[C@@]1(O)C[C@@H](O)[C@H](O)C(OCc2cccs2)=C1Cc1cccs1 (as salt: sodium) (hydrate or solvate) [Ib-8]	178 to 181 °C		
O=C(O)[C@@]1(O)C[C@@H](O)[C@H](O)c2sc(-c3ccccc3)cc21 [Ic-7, (4R,6R,7S)-4,6,7-trihyclroxy-2-phenyl-4,5,6,7-tetrahydroben-zo[b]thiophen-4-carboxylic acid]	168 to 173 °C	97	Ki [1, 6]: 85 nM; Ki [2, 7]: > 150000 nM
O=C1[C@@H](O)[C@H](O)C[C@](O)(C(=O)O)[C@H]1Cc1ccccc1 [(2R)-Ia-3, (2R)-2-benzyl-3-dehydroquinic acid]	146 to 148 °C		Ki [1, 8]: 1550 nM; Ki [3, 9]: 100 nM; Ki [2, 10]: 1400 nM
CCc1cc2c(s1)[C@@H](O)[C@H](O)C[C@]2(O)C(=O)O [Ic-9, (4R,6R,7S)-2-ethyl-4,6,7-trihydroxy-4,5,6,7-tetrahydrobenzo[b]thiophen-4-carboxylic acid]	130 °C (dec.)	185	Ki [1, 6]: 800 nM; Ki [2, 7]: 3400 nM
